From ChEMBL document CHEMBL3988442, “University of Dundee, Small-Polar-MMV Screening Library” (2021)

How the values were obtained:
[1] = microbe, parasite or virus in culture; settings: Mycobacterium tuberculosis, 96 h, read-out: pIC50 (converted)
[2] = microbe, parasite or virus in culture; settings: Mycobacterium tuberculosis, 72 h, read-out: pIC50 (converted)

SMILES | IC50 [1] [µM] | IC50 [2] [µM]
NCCCc1nc(-c2ccc(F)cc2)no1 | 186 | 163
CN1CCC(Cc2cc(Nc3ncccn3)ncn2)CC1 | > 50.1 | > 50.1
O=C(NCCO)c1ccc(OCc2cccs2)cc1 | > 501 | 378
COc1ccc([C@H]2C[C@H](N)C2)cc1F | 60.7 | 95
O=C(NCCN1CCCC1)c1csc(-c2ccco2)n1 | 224 | 201
FC(F)(F)c1ccccc1CN1CCOC[C@H](Oc2cccnc2)C1 | 18.7 | 48
O=S1(=O)CCCN(Cc2ccc(Br)c(F)c2)CC1 | 242 | 386
CC(C)c1ccc(OCn2ccc(C(=O)N3CCCC3)n2)cc1 | 24.5 | 26.5
CC(=O)c1sc(NCCc2ccccn2)nc1C | > 501 | > 501
COc1ccc(CNc2nc(C3CC3)nc3c(C)nn(C)c23)cc1 | 9.46 | 27.3
COCC(=O)N1CCC2(CC1)OCCO2 | > 501 | > 501
Fc1cc(Cl)cnc1N1CCCNCC1 | > 501 | 34.3
O=C(CN(C1=NCCCC1)c1ccccc1)c1ccc(OC(F)F)cc1 | 24.6 | 39.3
CCNC(=O)CNc1ccc(Br)cc1 | 210 | 162
CC(C)C(=O)NCCCNC(=O)c1ccc(F)cc1O | > 501 | 125
O=C(NCCc1ccc(F)c(F)c1)N1CCCC(O)C1 (configuration not stated) | > 501 | > 501
Fc1ccc(CSc2nnnn2CC2CCCO2)cc1 (configuration not stated) | 80.8 | 39
Cc1cc(C(=O)NCC2Cn3nnc(C)c3CO2)no1 (configuration not stated) | > 50.1 | > 50.1
CNc1cc(C)nc(NCc2cc(C)cc3c(C)c(C)[nH]c23)n1 | 35.8 | 23.6
CSc1c(F)cc(NC(=O)NCCO)cc1F | > 501 | > 501
CC(N)c1nc(-c2ccc3c(c2)OCO3)c[nH]1 (configuration not stated) | > 501 | > 501
c1cc2c(cc1CNc1nnc(C3CC3)o1)OCCO2 | 179 | 151
COC(=O)CCNS(=O)(=O)c1ccc(OC)cc1 | > 501 | > 501
Cc1nc(C2CN(Cc3ccc(F)cc3Br)CCO2)no1 (configuration not stated) | 11.2 | 33
NC(=O)CSc1nc(-c2ccc(Br)cc2)c[nH]1 | 260 | 160
O=C(NCc1ccnc(N2CCCC2)c1)c1ccsc1 | 141 | 114

SMILES | IC50 [1] [µM] | IC50 [2] [µM]
COCCN1CCCN(C(=O)c2cc(Cl)c[nH]2)CC1 | > 501 | 195
N#Cc1cccc(OCCn2cnc(C#N)n2)c1 | 304 | > 501
CCCn1cnnc1-c1nc2c([nH]1)CC(c1ccc(Cl)cc1)CNC2=O (configuration not stated) | 14.2 | 17.5
O=C(CCc1ccccc1)N1CCCNCC1 | > 501 | 192
CCCOc1cc(CNC(=O)c2csnc2C)ccn1 | 215 | 350
COc1ccc(COCC(O)CN(C)c2ccc(C)cc2C)cc1 (configuration not stated) | 16.8 | 16
c1csc(CN2CC(c3nc(-c4cnccn4)no3)C2)c1 | > 50.1 | > 50.1
CCOC(=O)c1cnc(N2CCNCC2)s1 | 240 | 256
COc1ncccc1CN(C)C(=O)c1ccccc1F | > 501 | > 501
CC(C)Cc1nnc(NCc2ccsc2)o1 | 35.4 | 3.95
Cc1cc(C(=O)N(C)C[C@H](O)CO)cc(Cl)c1Br | 51.9 | 403
FC(F)Oc1cccc(C2CNCCO2)c1 (configuration not stated) | 112 | 34
COc1c(C)cnc(CSc2nnc(N)s2)c1C | > 50.1 | > 50.1
COCCCSc1ccc(NCc2scnc2C)cc1 | 38.7 | 25.4
CCN(CC)CCn1cnc(-c2ccccc2)c1-c1ncc[nH]1 | 27.2 | > 50.1
CCn1nnc(NCc2ccccc2OCc2ccc(Cl)cc2)n1 | 0.308 | > 50.1
O=C(c1cc(C2CCCC2)no1)N1CCCCC1 | 4.9 | 2.4
CC(Cn1c(=O)[nH]c2ccccc2c1=O)N1CCCC1 (configuration not stated) | 111 | 63.1
O=C(CC1CC1)N[C@@H]1CN(Cc2ccoc2)C[C@@H]2CCCO[C@@H]21 | > 50.1 | > 50.1
CC(C)CNc1cccc(-n2cnnn2)c1 | 247 | 274
CC1CCCCN1S(=O)(=O)c1ccc(CCN)cc1 (configuration not stated) | > 501 | > 501
CC(C)CCNC(=O)Nc1ccc(S(C)(=O)=O)cc1 | 127 | 162
Fc1ccccc1CN1CCC[C@H](Cn2nnc(-c3cccs3)n2)C1 | 26.3 | 12.9
c1ccc(C2=NN=C(NC3CC3)SC2)cc1 | 140 | 230
Cc1oc(C)c(C(=O)NCC(=O)N2CCCC2)c1C | > 501 | > 501
CC1Cc2ccccc2N1CCN (configuration not stated) | 204 | 172

SMILES | IC50 [1] [µM] | IC50 [2] [µM]
COc1ccccc1C(N)c1ccccn1 (configuration not stated) | 453 | 233
Cc1cc(Br)cc(C(=O)NCc2nccc(N)n2)c1 | > 501 | > 501
Cc1cc(CNc2ccc(C(F)(F)F)cc2)no1 | 15.6 | 19.8
COCCC(=O)N1CCN(CC2CC2)c2ccccc21 | > 50.1 | 11.7
CC(C)[C@@H]1CN(C(=O)NCc2ccco2)C[C@H]1N(C)C | > 50.1 | > 50.1
CN(C)C(=O)CN1CCCC1c1ccc(F)cc1 (configuration not stated) | 143 | 96.3
CC(C)CNc1nc(N)c2cn[nH]c2n1 | 234 | 80
CNC(=O)CNC(=O)c1cc2ccccc2cc1OC | > 501 | > 501
CN1CCN(c2ccnc(SCC(N)=O)n2)CC1 | > 501 | 289
CCC1CN(C(=O)c2ccc3ccccc3n2)CCO1 (configuration not stated) | > 501 | 97.4
O=C(NCC1CCCO1)c1cc(-c2cccs2)on1 (configuration not stated) | 54.8 | 38.3
Cc1nnc(N2CC[C@@H](OCC3CC3)[C@@H](Cc3ccccc3)C2)s1 | > 50.1 | 38.3
Cc1c[nH]c(C(=O)NC2COc3ccccc3C2)n1 (configuration not stated) | > 501 | > 501
Cc1noc(C)c1CNC(=O)c1csc(S(N)(=O)=O)c1 | > 501 | > 501
COc1ccc(CN(C)C(=O)C2CC2)cc1F | 255 | 211
O=C(COc1ccccc1Cl)NCC(=O)c1ccco1 | > 501 | 342
CCCNc1nnc(SCC(C)(C)O)s1 | 159 | 297
NC(=O)CC1CCN(C(=O)Cc2ccc(Cl)cc2)CC1 | > 501 | > 501
COc1ccc(C(N)CO)c2ccccc12 (configuration not stated) | 313 | 193
CCC(CO)NC(=O)Cc1ccc(NC(=O)CC2=CCCCC2)cc1 (configuration not stated) | > 50.1 | > 50.1
COC(=O)c1snc(-c2ccccc2)c1N | 97 | 103
c1ccc(CN2CCCN(c3ccccn3)CC2)nc1 | 236 | 196
O=C(Nc1cccc(Cl)c1)C1CCCN1 (configuration not stated) | > 501 | 147
CCOc1cccc(CN(C)S(=O)(=O)c2cccs2)n1 | 191 | 144
